Laboratory results reported in paper PMC8742957, “Functional signaling test identifies HER2 negative breast cancer patients who may benefit from c-Met and pan-HER combination therapy” (Cell Communication and Signaling : CCS, 2022).
Where two headings read alike, the source gives them in different places. Blank lines part the entries; values can stand above or below the molecule they belong to.

Legend:
[1] = test system: HER-family receptors; experiment: CELsignia real-time live cell IC50 titration of pan-HER inhibitors against NRG1b/EGF stimulation, primary breast cancer cells; format: cell-based, human; conditions: six primary breast cancer cell samples with hyperactive HER- and c-Met signaling; inhibitor 18 h before NRG1b/EGF; Poziotinib three, Tucatinib five samples
Method: Owing to limited numbers of non-passaged or low passaged primary cells, 1000-fold, five-point dose response for antagonists to HER-family and c-Met receptors was performed for each corresponding agonist stimulus (i.e. NRG1b/EGF for HER-family activation and HGF for c-Met activation) in a live-cell CELsignia assay and the observed values were averaged. Drug additions were made 18 h prior to agonist addition. The measurand recording period of four hours began after the agonist addition. Response was plotted as a percent of the maximum response to the agonist observed in the absence of any antagonist using GraphPad Prism software and IC50 values were derived using non-linear regression.
A representative dose–response curve of cells from patient R66 to stimulation with NRG1b/EGF following pre-treatment with the indicated antagonists is shown in Fig. 4a. A total of six primary cell lines isolated from as many patients were included in this IC50 titration test and the average values are summarized in Table 1. The IC50 values for pan-HER antagonists against NRG1b/EGF stimulation determined from our real-time live cell assay align with what was previously reported in cell-free assays.

[2] = test system: HER/c-met signaling in HCC1954 cells; experiment: CELsignia analysis of HCC1954 cells, antagonists against cocktail of agonists (NRG, EGF, HGF); format: cell-based, human; conditions: cocktail NRG 3 nM, EGF 0.3 nM, HGF 50 pM, errors are standard deviation
Method: During the combined drug testing, we investigated the benefit of targeting HER1 specifically in combination with c-Met.
2.5 3x GF (N RG 3 n M, E G F 0. 3 nM , HG F 50 p M)
Fig. S6: Impedance time course example for antagonist effects on a cocktail of agonists
(NRG, EGF and HGF) for HCC1954 used to derive data in Table 7 (N of 4 experiments).
Also included on the plot timecourse are cells only (HSSM, red line) untreated by agonist

[3] = molecular target: T1, c-Met (Homo sapiens, UniProt P08581); experiment: Cross-talk analysis, inhibition of HGF signal in patient primary tumor cells (CELsignia); conditions: HGF 50 pM, Erlotinib 500 nM, Tucatinib 250 nM, Tepotinib 50 nM, four-hour period
T1 sequence (P08581 25-1390): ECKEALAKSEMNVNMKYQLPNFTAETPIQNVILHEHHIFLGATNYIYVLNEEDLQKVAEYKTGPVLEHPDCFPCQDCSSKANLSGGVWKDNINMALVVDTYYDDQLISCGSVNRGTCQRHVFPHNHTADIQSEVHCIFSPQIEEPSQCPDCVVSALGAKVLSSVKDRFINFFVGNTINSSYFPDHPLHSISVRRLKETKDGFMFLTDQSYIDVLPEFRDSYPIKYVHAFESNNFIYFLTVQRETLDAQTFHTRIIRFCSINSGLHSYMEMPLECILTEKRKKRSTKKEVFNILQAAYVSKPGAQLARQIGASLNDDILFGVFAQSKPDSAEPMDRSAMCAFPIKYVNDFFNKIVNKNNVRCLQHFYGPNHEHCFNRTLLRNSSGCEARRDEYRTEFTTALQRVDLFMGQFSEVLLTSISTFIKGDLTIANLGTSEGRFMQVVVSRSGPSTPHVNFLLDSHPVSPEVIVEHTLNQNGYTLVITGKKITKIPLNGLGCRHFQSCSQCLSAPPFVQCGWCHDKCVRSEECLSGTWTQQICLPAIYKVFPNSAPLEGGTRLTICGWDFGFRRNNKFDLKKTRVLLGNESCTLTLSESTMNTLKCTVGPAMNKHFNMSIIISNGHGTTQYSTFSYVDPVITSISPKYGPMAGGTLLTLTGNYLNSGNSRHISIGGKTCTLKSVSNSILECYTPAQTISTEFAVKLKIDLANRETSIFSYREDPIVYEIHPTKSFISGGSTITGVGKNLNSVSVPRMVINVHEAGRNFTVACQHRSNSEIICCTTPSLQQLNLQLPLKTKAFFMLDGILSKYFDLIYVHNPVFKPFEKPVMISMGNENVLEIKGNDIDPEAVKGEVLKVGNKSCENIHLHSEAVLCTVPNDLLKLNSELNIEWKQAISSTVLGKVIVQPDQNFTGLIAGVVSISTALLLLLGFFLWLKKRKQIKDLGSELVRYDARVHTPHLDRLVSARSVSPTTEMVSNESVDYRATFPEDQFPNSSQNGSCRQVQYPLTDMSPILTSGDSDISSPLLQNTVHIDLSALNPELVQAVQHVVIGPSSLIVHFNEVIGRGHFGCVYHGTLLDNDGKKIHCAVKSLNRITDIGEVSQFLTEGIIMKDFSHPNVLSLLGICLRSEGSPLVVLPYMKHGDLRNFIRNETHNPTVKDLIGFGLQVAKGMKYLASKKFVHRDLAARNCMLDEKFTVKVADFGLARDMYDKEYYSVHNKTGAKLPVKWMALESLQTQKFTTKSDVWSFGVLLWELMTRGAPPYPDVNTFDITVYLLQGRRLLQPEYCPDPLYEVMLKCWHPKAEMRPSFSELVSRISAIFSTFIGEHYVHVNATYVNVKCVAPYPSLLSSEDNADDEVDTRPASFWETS

[4] = test system: HCC1954 xenograft; conditions: NSG mice; for Tumor reduction, drug arm versus control: oral gavage QD 21 doses, Neratinib 40, Tepotinib 50, Erlotinib 25 mg/kg
Method: A selection of an appropriate cell line was necessary owing greatly to the limited commercially available tumorigenic breast cancer mouse models with the abnormal signaling function of interest to this study. Female NSG (NOD SCID gamma; NOD.Cg-Prkdc^scid Il2rg^tm1Wjl/SzJ) mice were procured from Jackson Labs (Bar Harbor, Maine, USA). The mice were injected in their fat pad with HCC1954 cells dissolved in 150 µL of a 50% Matrigel solution. Tumors were allowed to form until they reached a minimum average size of 150 mm^3. At this time, the tumor bearing cohort was divided up into 10-mouse treatment groups of uniform distribution of tumor sizes, just prior to initiating treatment. Tumor size and body weights were measured a minimum of twice per week. Upon completion of the study period, the mice were euthanized for necropsy and sample/tissue collection at the study endpoint or when tumor size reached ≥ 2 cm^3.
Female NSG mice, 4–5 weeks old, were injected subcutaneously in the left mammary fat pad with two million HCC1954 cells. After the average tumor volume reached 150 mm^3 the mice were randomly assigned into six cohorts of 10 mice each (n = 10). Each of the experimental mice were dosed by oral gavage with 100 µL dosing solution daily (QD) for 21 days (21 doses). […] In order to determine the effects of the pan-HER and c-Met antagonists on tumor size, the tumor volume (in mm^3) was measured and plotted as shown in Fig. 8b.

[5] = test system: BT-20 cells; experiment: Flow cytometry of cell toxicity markers, BT-20; format: cell-based, human; conditions: 250 nM, singly or in combination, 16h
Method: (§1) For analysis of cell toxicity, single cell suspensions were stained with TMRE (200 nM for 30 min), washed with FACS buffer, and stained with Annexin V-AlexaFluor647 (Biolegend; San Diego, CA) following the manufacturers’ instructions. The TMRE/Annexin V stained cells were resuspended in FACS buffer containing Sytox Blue (Thermo Fisher; Waltham, MA) and analyzed on a Novocyte 3000 FACS instrument and NovoExpress software (Agilent; Santa Clara, CA). For analysis of intracellular phosphoproteins by FACS, cells were stained using a Live/Dead fixable dye (Zombie NIR; BioLegend), fixed using 1.6% paraformaldehyde, permeabilized with cold-methanol, and then stained using antibodies towards AKT-pS473 (Cell Signaling Technology; Danvers, MA) and FAK-pS910 (BD Biosciences) (Table S2) prior to FACS analysis.
Figure S7. CELsignia test is more sensitive and rapid for detecting anti-cancer drug efficacy compared to biological correlates – Normal signaling cell line, BT-20. BT-20 cells were normal signaling for HER and c-Met by the CELsignia test. To test flow cytometry markers for correlation a test was setup following the dose and time parameters used for the CELsignia test. The cells […]
(250 nM) and neratinib (250 nM), either singly or in combination, as indicated. Cells were harvested and then analyzed by flow cytometry for the markers shown following a period of 16h […]
(§2) (1 picture or pasted object on this page, not shown here)
Figure S9. CELsignia test is more sensitive and rapid for detecting anti-cancer drug efficacy compared to biological correlates – Normal signaling cell line, BT20 continued. BT-20 cells […]
Figure S11. CELsignia test is more sensitive and rapid for detecting anti-cancer drug efficacy compared to biological correlates – Normal signaling cell line, BT-20 continued. BT-20 cells

[6] = test system: BT-474 cells; experiment: Flow cytometry of cell toxicity markers, BT-474, 72 h; format: cell-based, human; conditions: neratinib and/or tepotinib
Method: as §1, with “analysis. […]” for “analysis.”
marker resistance to prolonged drug treatment – Normal signaling cell line, BT474. BT-474 […]
These cell lines were treated with neratinib […]
(§3) cytometry for cell death using Sytox Blue, apoptosis marker annexin V, and mitochondrial potential by TMRE staining. Flow cytometry histogram plots are representative of at least two […]
(§4) according to these markers.
as §2

[7] = test system: A549 cells; experiment: Flow cytometry of cell toxicity markers, A549, 72 h; format: cell-based, human; conditions: neratinib and/or tepotinib
Method: For analysis of cell toxicity, single cell suspensions were stained with TMRE (200 nM for 30 min), washed with FACS buffer, and stained with Annexin V-AlexaFluor647 (Biolegend; San Diego, CA) following the manufacturers’ instructions. The TMRE/Annexin V stained cells were resuspended in FACS buffer containing Sytox Blue (Thermo Fisher; Waltham, MA) and analyzed on a Novocyte 3000 FACS instrument and NovoExpress software (Agilent; Santa Clara, CA). […]
marker resistance to prolonged drug treatment – Normal signaling cell line, A549. A549 cell […]
A549 cells were treated with neratinib […]
as §3, §4, §2

[8] = test system: AKT-pS473 and FAK-pS910 in HCC1954 cells; experiment: Intracellular phospho-flow cytometry of AKT-pS473 and FAK-pS910, HCC1954; format: cell-based, human; conditions: 16 h
[9] = test system: MDA-MB-231 cells; experiment: Flow cytometry of cell toxicity markers, MDA-MB-231; format: cell-based, human; conditions: 250 nM, singly or in combination, 16h
Method: as §1
Figure S8. CELsignia test is more sensitive and rapid for detecting anti-cancer drug efficacy compared to biological correlates – Normal signaling cell line, MDA-MB-231. MDA-MB-231 cells were normal signaling for HER and c-Met by the CELsignia test. To test flow cytometry markers for correlation a test was setup following the dose and time parameters used for the CELsignia test. The cells were seeded in collagen-fibrinogen (CF) coated culture plates and treated […]
indicated. Cells were harvested and then analyzed by flow cytometry for the markers shown following a period of 16h drug treatment. […]
these drugs according to the Sytox blue marker.
as §2
Figure S10. CELsignia test is more sensitive and rapid for detecting anti-cancer drug efficacy compared to biological correlates – Normal signaling cell line, MDA-MB-231 continued.
MDA-MB-231 cells were seeded in collagen-fibrinogen (CF) coated culture plates and treated 6h […]
Cells were harvested and then analyzed by flow cytometry for the markers shown following a period of 16h drug treatment. […]
according to annexin V marker.
Figure S12. CELsignia test is more sensitive and rapid for detecting anti-cancer drug efficacy […]
according to TMRE marker.

[10] = test system: HER-family and c-Met receptors; experiment: CELsignia inhibition of combined NRG/EGF/HGF cocktail signal, patient breast cancer cells; format: cell-based, human; conditions: patient C135; Neratinib 500 nM, tepotinib 50 nM; compared to growth factor only well
Method: To simulate this multiplexed perturbant condition and test the ability of the different targeted drugs to attenuate abnormal signaling from multiplexed agonists, patient breast cancer cells were stimulated with a growth factor cocktail of EGF, NRG1b, and HGF (N/E/H) to simultaneously initiate signaling via the HER-family and c-Met receptors. […] Cell index signaling units were calculated relative to the baseline values obtained from cells that were not treated with either agonists or antagonists.

[11] = test system: HER-family (EGF stimulation); experiment: Impedance test IC50 with single growth factor EGF (set-up of median effects, HCC1954); format: cell-based, human; conditions: neratinib + EGF
Text: Fig. S5: Median effects plots.
EGF on HCC1954. When CI>1,
and Talalay. CI<1 is indicative of synergy. C) Antagonist median effects plot of patient sample
indicative of additivity; CI<1 is indicative of synergy.

[12] = molecular target: T1, c-Met; experiment: cell-based
[13] = read-out: Percent inhibition of growth factor signal, patient C753
[14] = read-out: Percent inhibition of growth factor signal, patient C1061
[15] = read-out: Percent inhibition of growth factor signal, patient R66

Structure (SMILES): COc1cc2ncnc(Nc3ccc(F)c(Cl)c3)c2cc1NC(=O)/C=C/CN1CCCCC1 [Dacomitinib]
- IC50 [1]: 22.1 nM

Structure (SMILES): C#Cc1cccc(Nc2ncnc3cc(OCCOC)c(OCCOC)cc23)c1 [Erlotinib]
- HER/c-met inhibition (%) [2]: 9.2 ± 10.3 (n = 2) %
- inhibition at 0.5 µM [3, 13]: 15%
- inhibition at 0.5 µM [3, 14]: 7%
- inhibition at 0.5 µM [3, 15]: 38%
- Tumor reduction, drug arm versus control [4]: 5% (p = 0.870)

Structure (SMILES): CCOc1cc2ncc(C#N)c(Nc3ccc(OCc4ccccn4)c(Cl)c3)c2cc1NC(=O)/C=C/CN(C)C [Neratinib]
- HER/c-met inhibition (%) [2]: 14.6 ± 29.6 (n = 4) %
- Response according to TMRE marker [5]: do not respond
- Response according to annexin V marker [5]: do not respond
- Response according to the Sytox blue marker [5]: do not respond
- Response according to Sytox Blue, annexin V and TMRE markers [6]: do not respond
- Response according to Sytox Blue, annexin V and TMRE markers [7]: do not respond
- distribution of pFAK high cells [8]: not significantly altered
- frequency of pAKT high cells ([8]; singly and in combination with tepotinib): dose-dependent decline
- Tumor reduction, drug arm versus control [4]: 54% (p = 0.003)
- Tumor reduction, drug arm versus control ([4]; listed as neratinib): 54%
- Response according to TMRE marker [9]: do not respond
- Response according to annexin V marker [9]: do not respond
- Response according to the Sytox blue marker [9]: do not respond
- Order of efficacy against response to simultaneous NRG, EGF and HGF [10]: more efficacious
- IC50 [11]: 15 nM
- IC50 [1]: 4.81 nM

Structure (SMILES): CN1CCC(COc2cnc(-c3cccc(Cn4nc(-c5cccc(C#N)c5)ccc4=O)c3)nc2)CC1 [Tepotinib]
- Response according to TMRE marker [5]: do not respond
- Response according to annexin V marker [5]: do not respond
- Response according to the Sytox blue marker [5]: do not respond
- Response according to Sytox Blue, annexin V and TMRE markers [6]: do not respond
- Response according to Sytox Blue, annexin V and TMRE markers [7]: do not respond
- effect on pFAK and pAKT population distributions ([8]; single agent): no detectable dose-dependent effect
- Tumor reduction, drug arm versus control [4]: 10% (p = 0.780)
- Adverse observations in treated cohort ([4]; oral gavage QD, Tepotinib 50 mg/kg, Neratinib + Tepotinib 40 + 50 mg/kg): ^#Due to weight loss, 1 mouse given 3 day dose holiday due, and 1 mouse given 7 day dose holiday
- Response according to TMRE marker [9]: do not respond
- Response according to annexin V marker [9]: do not respond
- Response according to the Sytox blue marker [9]: do not respond

Now from value to molecule:

- IC50 [1]: 13.1 nM
Structure (SMILES): C=CC(=O)N1CCC[C@@H](n2nc(-c3ccc(Oc4ccccc4)cc3)c3c(N)ncnc32)C1 [Ibrutinib]

- IC50 [1]: 137 nM
Structure (SMILES): CS(=O)(=O)CCNCc1ccc(-c2ccc3ncnc(Nc4ccc(OCc5cccc(F)c5)c(Cl)c4)c3c2)o1 [Lapatinib]

- IC50 [1]: 1.23 nM
Structure (SMILES): C=CC(=O)N1CCC(Oc2cc3c(Nc4ccc(Cl)c(Cl)c4F)ncnc3cc2OC)CC1 [Poziotinib]

- IC50 [1]: 41.3 nM
Structure (SMILES): CNC(=O)CN1CCC(Oc2cc3c(Nc4cccc(Cl)c4F)ncnc3cc2OC)CC1 [Sapitinib]

- IC50 [12]: 3.56 nM
Structure (SMILES): C[C@@H](c1ccc2nccn2c1)n1nnc2ncc(-c3cnn(C)c3)nc21 [Savolitinib]

- inhibition at 0.25 µM [3, 13]: -6%
- inhibition at 0.25 µM [3, 14]: -13%
- inhibition at 0.25 µM [3, 15]: 25%
- IC50 [1]: 333 nM
Structure (SMILES): Cc1cc(Nc2ncnc3ccc(NC4=NC(C)(C)CO4)cc23)ccc1Oc1ccn2ncnc2c1 [Tucatinib]
